Values quoted from earlier work in US12268699B2, “Transdermal delivery of tetrahydrocannabinol” (Pike Therapeutics Inc., priority 2019, dated 2025).
Where two headings read alike, the source gives them in different places.

Key:
[1] = target: CB1 (Homo sapiens, UniProt P21554)
[2] = target: CB2 (Homo sapiens, UniProt P34972)
[3] = test system: CB2 receptor over CB1; conditions: given as ×, -fold or times
[4] = in 96 hrs. with 6% Brij O20
[5] = test system: complete Freund's adjuvant-induced monoarthritic knee join mode; conditions: transdermal

Chain of CB1 (P21554 whole entry, species assumed): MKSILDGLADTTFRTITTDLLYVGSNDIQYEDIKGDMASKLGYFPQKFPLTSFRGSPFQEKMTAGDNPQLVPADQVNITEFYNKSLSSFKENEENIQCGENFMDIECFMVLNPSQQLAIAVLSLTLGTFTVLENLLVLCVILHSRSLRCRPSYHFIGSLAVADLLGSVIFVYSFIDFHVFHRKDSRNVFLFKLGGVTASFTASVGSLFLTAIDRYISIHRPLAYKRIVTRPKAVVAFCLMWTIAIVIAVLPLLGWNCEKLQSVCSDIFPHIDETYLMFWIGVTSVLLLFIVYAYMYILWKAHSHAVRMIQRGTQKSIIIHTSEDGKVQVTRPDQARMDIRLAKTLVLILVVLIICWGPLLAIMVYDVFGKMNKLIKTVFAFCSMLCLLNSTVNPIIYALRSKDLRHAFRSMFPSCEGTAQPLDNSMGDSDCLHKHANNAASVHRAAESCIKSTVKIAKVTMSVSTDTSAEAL
Chain of CB2 (P34972 whole entry, species assumed): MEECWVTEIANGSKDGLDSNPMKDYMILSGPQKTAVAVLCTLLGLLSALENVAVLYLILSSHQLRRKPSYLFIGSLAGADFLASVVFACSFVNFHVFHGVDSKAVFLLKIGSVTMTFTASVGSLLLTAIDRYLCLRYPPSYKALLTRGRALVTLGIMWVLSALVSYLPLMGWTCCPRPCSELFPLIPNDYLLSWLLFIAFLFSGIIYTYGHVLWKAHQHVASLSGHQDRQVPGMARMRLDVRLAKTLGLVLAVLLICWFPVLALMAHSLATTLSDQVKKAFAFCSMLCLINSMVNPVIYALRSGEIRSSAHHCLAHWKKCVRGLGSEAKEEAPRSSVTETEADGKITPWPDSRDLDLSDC

## CCCCCn1cc(C(=O)c2cccc3cccc(Br)c23)c2ccccc21 [JWH-424]
[1]
  Ki: 20.9 nM
[2]
  Ki: 5.44 nM

## CCCCCCC(C)(C)c1cc(OC)c2c(c1)OC(C)(C)C1CCC(O)CC21 (stereo not drawn) [JWH-350, 11-nor-1-methoxy-3-(1′,1′-dimethylheptyl)-9α-hydroxyhexahydrocannabinol]
[3]
  selectivity for CB2 over CB1: 33

## CCCCCc1cc(O)c2c(c1)OC(C)(C)[C@@H]1CCC(C)=C[C@@H]21 [naturally derived delta-9-THC, (−)-(6aR,10aR)-6,6,9-Trimethyl-3-pentyl-6a,7,8,10a-tetrahydro-6H-benzo[c]chromen-1-ol]
[4]
  skin permeability: 20 µg

## CCCn1cc(C(=O)c2ccc(C)c3ccccc23)c2ccccc21 [JWH-120]
[3]
  selectivity for CB2 over CB1: 173

## C=C(C)[C@@H]1CCC(C)=C[C@H]1c1c(O)cc(CCCCC)cc1O [CBD, 2-[(1R,6R)-6-isopropenyl-3-methylcyclohex-2-en-1-yl]-5-pentylbenzene-1,3-diol]
[5]; dose of 6.2 mg/day
  knee-joint swelling: reduce knee-joint swelling
[5]; dose of 62 mg/day
  knee-joint swelling: failed to yield any additional improvement

## CCCn1c(C)c(C(=O)c2ccc(C)c3ccccc23)c2ccccc21 [JWH-148]
[3]
  selectivity for CB2 over CB1: more than 8

## CCCCCCC(C)(C)c1cc(O)c2c(c1)oc(=O)c1ccc(OC)cc12 [AM-1710]
[3]
  selectivity for CB2 over CB1: 54

## CCCCCn1cc(C(=O)c2ccc(Cl)c3ccccc23)c2ccccc21 [JWH-398]
[1]
  Ki: 2.3 nM
[2]
  Ki: 2.8 nM
